Results reported in patent US10221163B2 (priority 2015, dated 2019).
Like-named read-outs stand apart in the source and are kept apart here.

How the values were obtained:
[1] = system: Pseudomonas aeruginosa efflux+ (MB9798), IMP-1; type: cell-based; design: Concentration of metallo-β-lactamase inhibitor which restores susceptibility of efflux + (MB9798) strain to imipenem: unit not given here; conditions: C, D serine β-lactamase inhibitor closely related to relebactam; for P. aeruginosa expressing IMP-1, efflux + (MB9798) MITC95: concentration restoring susceptibility to imipenem at 2 μg/mL in the presence of a class A; for Concentration of metallo-β-lactamase inhibitor which restores susceptibility of efflux + (MB9798) strain to imipenem: imipenem at 2 μg/mL, in the presence of a class A
Outline: (§1)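 PAO1 pair, broth microdilution; fixed β-lactam (imipenem/ceftazidime) at ~CLSI breakpoint + fixed class A/C BLI for AmpC; serial MBLi titration; endpoint = MBLi conc. restoring susceptibility; MB9798:MB9799 ratio = efflux liability.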

VIM-1 = VIM-1 (Pseudomonas aeruginosa (strain ATCC 15692 / DSM 22644 / CIP 104116 / JCM 14847 / LMG 12228 / 1C / PRS 101 / PAO1), UniProt A0A0F7KYQ8); assay: biochemical; conditions: CCF2-FA substrate, 30 pM enzyme, 2 hours at 25° C.
Outline: (§2)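 Class B activity is measured in the presence of compound by fluorescence with CCF2-FA after a 2-hour incubation at 25° C. IC50 is taken from a 4-parameter fit of semi-logarithmic dose-response data.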

IMP-1 = IMP-1 (Serratia marcescens, UniProt P52699); assay: biochemical; type: biochemical; conditions: fluorescence assay, CCF2-FA substrate, 2 pM enzyme, 2 hours at 25° C.; read-out: IMP-1 IC50
Outline: as §2

NDM-1 = NDM-1 (Klebsiella pneumoniae, UniProt C7C422); assay: biochemical; type: biochemical; conditions: fluorescence assay, CCF2-FA substrate, 1 pM enzyme, 2 hours at 25° C.; read-out: NDM-1 IC50
Outline: as §2

[2] = system: Pseudomonas aeruginosa MB9798 vs MB9799
Outline: as §1

[3] = system: Escherichia coli expressing NDM-1 (CLB30005, CLB30016); type: cell-based; conditions: with imipenem 1 μg/ml; for Escherichia coli MITC95: NDM-1 strain, 95% inhibition of growth; for Escherichia coli expressing NDM-1 (CLB30016) MITC95: 95% inhibition of bacterial growth
Outline: (§3)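 Clinical isolates (E. coli NDM-1, S. marcescens IMP-1, K. pneumoniae VIM-1) were diluted 1:100 from saline suspension into 1.1×CAMHB and exposed to test compound with imipenem at 1 μg/ml. Plates were incubated at 35° C for 22 hours to 24 hours, and growth was read by absorbance.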

[4] = system: Klebsiella pneumoniae expressing VIM-1 (IHMA599644); type: cell-based; conditions: for Klebsiella pneumoniae MITC95: VIM-1 strain IHMA599644, with imipenem 1 μg/ml, 95% inhibition of growth; for Klebsiella pneumoniae expressing VIM-1 (IHMA599644) MITC95: with imipenem 1 μg/ml, 95% inhibition of bacterial growth
Outline: as §3

[5] = system: Serratia marcescens expressing IMP-1 (CL5741); type: cell-based; conditions: for Serratia marcescens MITC95: IMP-1 strain CL5741, with imipenem 1 μg/ml, 95% inhibition of growth; for Serratia marcescens expressing IMP-1 (CL5741) MITC95: with imipenem 1 μg/ml, 95% inhibition of bacterial growth
Outline: as §3

[6] = system: Pseudomonas aeruginosa efflux− (MB9799), IMP-1; type: cell-based; conditions: C, D serine β-lactamase inhibitor closely related to relebactam; for P. aeruginosa expressing IMP-1, efflux − (MB9799) MITC95: concentration restoring susceptibility to imipenem at 2 μg/mL in the presence of a class A; for Concentration of metallo-β-lactamase inhibitor which restores susceptibility of efflux − (MB9799) strain to imipenem: imipenem at 2 μg/mL, in the presence of a class A
Outline: as §1

[7] = fluorescence assay, read-out: VIM-1 IC50
[8] = ratio MITC95 PA_9798/MITC95 PA_9799
[9] = fold difference between efflux+ (MB9798) and efflux− (MB9799) strains, imipenem at 2 μg/mL

Chain of NDM-1 (C7C422 whole entry, looked up, species assumed): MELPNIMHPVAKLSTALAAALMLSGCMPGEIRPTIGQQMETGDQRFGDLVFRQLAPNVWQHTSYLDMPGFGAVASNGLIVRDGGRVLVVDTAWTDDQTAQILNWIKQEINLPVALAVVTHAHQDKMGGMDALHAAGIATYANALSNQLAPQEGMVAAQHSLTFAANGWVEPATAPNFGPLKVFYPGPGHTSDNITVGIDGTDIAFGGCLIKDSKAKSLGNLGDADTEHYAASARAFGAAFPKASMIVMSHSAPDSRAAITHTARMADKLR
Chain of IMP-1 (P52699 whole entry, looked up, species assumed): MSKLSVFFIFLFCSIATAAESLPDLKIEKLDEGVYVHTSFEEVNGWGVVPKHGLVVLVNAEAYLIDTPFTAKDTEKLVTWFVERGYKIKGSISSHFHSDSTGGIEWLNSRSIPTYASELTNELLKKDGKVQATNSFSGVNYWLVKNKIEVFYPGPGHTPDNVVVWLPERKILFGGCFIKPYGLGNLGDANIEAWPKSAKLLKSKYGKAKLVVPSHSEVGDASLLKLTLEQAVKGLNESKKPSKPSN

Compound	P. aeruginosa expressing IMP-1, efflux + (MB9798) MITC95 [1] [µM]	IC50 (VIM-1; [7]) [pM]	IC50 (IMP-1) [pM]	IC50 (NDM-1) [pM]	Efflux ratio [2, 8]	Escherichia coli MITC95 [3] [µM]	Klebsiella pneumoniae MITC95 [4] [µM]	Serratia marcescens MITC95 [5] [µM]	P. aeruginosa expressing IMP-1, efflux − (MB9799) MITC95 [6] [µM]	IC50 (VIM-1; VIM-1 IC50, fluorescence assay) [pM]	Concentration of metallo-β-lactamase inhibitor which restores susceptibility of efflux + (MB9798) strain to imipenem [1]	Efflux ratio [2, 9]	Concentration of metallo-β-lactamase inhibitor which restores susceptibility of efflux − (MB9799) strain to imipenem [6]	Escherichia coli expressing NDM-1 (CLB30016) MITC95 [3] [µM]	Klebsiella pneumoniae expressing VIM-1 (IHMA599644) MITC95 [4] [µM]	Serratia marcescens expressing IMP-1 (CL5741) MITC95 [5] [µM]
NCC(=O)NC1CCC[C@@H](c2ccc(S(=O)(=O)N[C@@H]3CCNC3)c(S(N)(=O)=O)c2-c2nn[nH]n2)C1 (stereo partly drawn) [Example 270, 2-Amino-N-((3R)-3-(4-(N—((R)-pyrrolidin-3-yl)sulfamoyl)-3-sulfamoyl-2-(2H-tetrazol-5-yl)phenyl)cyclohexyl)acetamide]	1.563	202	2320	244	1.00	1.563	3.125	3.125	1.563							
NCCNS(=O)(=O)c1ccc(C2=CC(N)CCC2)c(-c2nn[nH]n2)c1S(N)(=O)=O (stereo not drawn) [Example 338, 5′-Amino-N4-(2-aminoethyl)-2-(2H-tetrazol-5-yl)-2′,3′,4′,5′-tetrahydro-[1,1′-biphenyl]-3,4-disulfonamide]	6.25	6420	91000	37600	4.00	1.563	1.563	1.563	1.563							
Nc1nc2c(-c3ccc(S(=O)(=O)NC[C@@]4(N)CCNC4)c(S(N)(=O)=O)c3-c3nn[nH]n3)cccc2s1 [Example 367, (R)-4-(2-aminobenzo[d]thiazol-4-yl)-N1-((3-aminopyrrolidin-3-yl)methyl)-3-(2H-tetrazol-5-yl)benzene-1,2-disulfonamide]	0.7813		76.6	19.3	0.50	1.563	3.125	1.563	1.563	97.5						
Nc1ncc(-c2cccc(-c3ccc(S(=O)(=O)N[C@@H]4CCNC4)c(S(N)(=O)=O)c3-c3nnn[nH]3)n2)[nH]1 [Example 439, (R)-4-(6-(2-Amino-1H-imidazol-5-yl)pyridin-2-yl)-N^1-(pyrrolidin-3-yl)-3-(1H-tetrazol-5-yl)benzene-1,2-disulfonamide]		629	6720	254		3.125	1.563	1.563			6.25	4.00	1.563			
Nc1nc2c(-c3ccc(S(=O)(=O)NC4CN5CCC4CC5)c(S(N)(=O)=O)c3-c3nnn[nH]3)cccc2s1.O=C(O)C(F)(F)F (stereo not drawn) [Example 97, 3-(4-(2-aminobenzo[d]thiazol-4-yl)-2-sulfamoyl-3-(1H-tetrazol-5-yl)phenylsulfonamido)quinuclidin-1-ium 2,2,2-trifluoroacetate]	1.563		383	21.4	1.00				1.563	222				3.125	3.125	3.125
NCc1nc2cc(-c3ccc(S(=O)(=O)N[C@@H](CN)CO)c(S(N)(=O)=O)c3-c3nn[nH]n3)ccc2s1 [Example 475, (S)-N1-(1-amino-3-hydroxypropan-2-yl)-4-(2-(aminomethyl)benzo[d]thiazol-5-yl)-3-(2H-tetrazol-5-yl)benzene-1,2-disulfonamide]		87	130	60.4		0.7813	1.563	1.563			0.7813	1.00	0.7813			
NS(=O)(=O)c1c(S(=O)(=O)N[C@@H]2CCNC2)ccc(-c2cccc3ncccc23)c1-c1nn[nH]n1 [Example 287, (R)-N1-(pyrrolidin-3-yl)-4-(quinolin-5-yl)-3-(2H-tetrazol-5-yl)benzene-1,2-disulfonamide]	1.563	165	617	42.2	1.00	1.563	3.125	1.563	1.563							
NCc1nc2c(-c3ccc(S(=O)(=O)NC[C@@H](O)CN)c(S(N)(=O)=O)c3-c3nn[nH]n3)cccc2s1 [Example 306, (S)—N1-(3-amino-2-hydroxypropyl)-4-(2-(aminomethyl)benzo[d]thiazol-4-yl)-(2H-tetrazol-5-yl)benzene-1,2-disulfonamide]	0.7813		293	58.7	1.00	0.7813	1.563	0.7813	0.7813	56.4						
Nc1ncc(-c2ccc(S(=O)(=O)N[C@H]3CNC[C@H]3N)c(S(N)(=O)=O)c2-c2nn[nH]n2)s1 [Example 325, N1-((3S,4R)-4-aminopyrrolidin-3-yl)-4-(2-aminothiazol-5-yl)-3-(2H-tetrazol-5-yl)benzene-1,2-disulfonamide]	1.563		1220	724	2.00	0.7813	3.125	1.563	0.7813	896						
Nc1nc2c(-c3ccc(S(=O)(=O)N[C@@H]4CNC[C@H]4N)c(S(N)(=O)=O)c3-c3nn[nH]n3)cccc2[nH]1 [Example 424]			814	87		0.7813	1.563	1.563		301	1.563	1.00	1.563			
Nc1nc2c(-c3ccc(S(=O)(=O)N4CC[C@@H](F)[C@H](N)C4)c(S(N)(=O)=O)c3-c3nn[nH]n3)cccc2[nH]1 [Example 205, 3-(2-amino-1H-benzo[d]imidazol-4-yl)-6-(((3R,4R)-3-amino-4-fluoropiperidin-1-yl)sulfonyl)-2-(2H-tetrazol-5-yl)benzenesulfonamide]	12.5	3630	5890	1200	8.00				1.563					1.563	3.125	3.125
NC[C@@H](O)CNS(=O)(=O)c1ccc(-c2cnc(N)c(F)c2)c(-c2nn[nH]n2)c1S(N)(=O)=O [Example 478, (R)-N1-(3-amino-2-hydroxypropyl)-4-(6-amino-5-fluoropyridin-3-yl)-3-(2H-tetrazol-5-yl)benzene-1,2-disulfonamide]			677	159		1.563	3.125	1.563		91.4	0.7813	1.00	0.7813			
